From patent US20110182850A1, “ORGANIC COMPOUNDS AND THEIR USES” (priority 2009, published 2011) come the findings set out here.

For the first experiment, the target named is T1, HCV NS3-4A serine protease (full-length NS3-4A protein, genotype 1a, strain HCV-1) (Hepatitis C virus genotype 1a, UniProt P26664).
T1 construct: using the full-length NS3-4A protein (genotype 1a, strain HCV-1)
T1 sequence (P26664 1658-1711): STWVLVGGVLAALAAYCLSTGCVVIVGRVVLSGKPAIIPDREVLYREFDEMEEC
T1 sequence (P26664 1027-1657): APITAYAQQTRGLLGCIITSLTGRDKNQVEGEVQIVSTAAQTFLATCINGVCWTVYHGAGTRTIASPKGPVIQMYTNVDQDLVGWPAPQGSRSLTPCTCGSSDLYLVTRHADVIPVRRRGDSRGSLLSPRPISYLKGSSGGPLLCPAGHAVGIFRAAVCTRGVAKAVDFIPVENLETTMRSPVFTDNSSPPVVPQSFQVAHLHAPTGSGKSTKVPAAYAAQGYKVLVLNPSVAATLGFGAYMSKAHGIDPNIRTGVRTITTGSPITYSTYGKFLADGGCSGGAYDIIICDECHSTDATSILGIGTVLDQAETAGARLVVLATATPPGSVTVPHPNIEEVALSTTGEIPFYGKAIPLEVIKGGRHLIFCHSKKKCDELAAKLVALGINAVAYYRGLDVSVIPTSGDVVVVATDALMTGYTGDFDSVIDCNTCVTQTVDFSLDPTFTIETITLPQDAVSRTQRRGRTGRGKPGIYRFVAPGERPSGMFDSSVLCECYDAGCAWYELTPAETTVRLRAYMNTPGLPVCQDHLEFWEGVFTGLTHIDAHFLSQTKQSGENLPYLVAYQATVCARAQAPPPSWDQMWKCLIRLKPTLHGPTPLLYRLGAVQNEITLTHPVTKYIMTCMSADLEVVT
The experiment can be described thus: HCV NS3-4A protease assay. The class given is biochemical. The following applies: Protease IC50. On the procedure: The inhibitory activity of certain compounds of Table A against HCV NS3-4A serine protease is determined in a homogenous assay using the full-length NS3-4A protein (genotype 1a, strain HCV-1) and a commercially available internally-quenched fluorogenic peptide substrate as described by Taliani, M., et al. 1996 Anal. Biochem. 240:60-67, which is incorporated by reference in its entirety.
The term IC50 denotes the point on the concentration scale where inhibition reaches its midpoint. On to `CC[C@@H]1C[C@]1(NC(=O)[C@@H]1C[C@@]2(CN1C(=O)[C@@H](NC(=O)[C@@H](NC(=O)c1cnccn1)C(C)(C)C)C(C)(C)C)C(C)(C)C21CCC1)C(=O)NS(=O)(=O)C1CC1` [Compound 134, (5R,8S)-N-{(1R,2R)-1-[(cyclopropylsulfonyl)carba-moyl]-2-ethylcyclopropyl}-7-[(2S)-2-({(2S)-3,3-dimethyl-2-[(pyrazin-2-ylcarbonyl)amino]butanoyl}amino)-3,3-dimethylbutanoyl]-10,10-dimethyl-7-azadispiro[3.0.4.1]decane-8-carboxamide], for which the IC50 was 40 nM.
On the same count and under the same terms, in the case of `C=C[C@@H]1C[C@]1(NC(=O)[C@@H]1C[C@@]2(CN1C(=O)[C@@H](NC(=O)[C@@H](NC(=O)[C@@H]1CCCN1C(C)C)C1CCCCC1)C(C)(C)C)C(C)(C)C21CCC1)C(=O)NS(=O)(=O)c1ccccc1` [Compound 62, (5R,8S)-7-[(2S)-2-{[(2S)-2-cyclohexyl-2-({[(2S)-1-isopropylpyrrolidin-2-yl]carbonyl}amino)acetyl]amino}-3,3-dimethylbutanoyl]-10,10-dimethyl-N-{(1R,2S)-1-[(phenylsulfonyl)carbamoyl]-2-vinylcyclopropyl}-7-azadispiro[3.0.4.1]decane-8-carboxamide] it was 0.7 nM.
Same read-out and setting: the figure for `C=C[C@@H]1C[C@]1(NC(=O)[C@@H]1C[C@@]2(CN1C(=O)[C@@H](NC(=O)[C@@H](NC(=O)[C@@H]1CCCN(CC)C1)C1CCCCC1)C(C)(C)C)C(C)(C)C21CCC1)C(=O)NS(=O)(=O)C1CC1` [Compound 90, (5R,8S)-7-[(2S)-2-{[(2S)-2-cyclohexyl-2-({[(3R)-1-ethylpiperidin-3-yl]carbonyl}amino)acetyl]amino}-3,3-dimethylbutanoyl]-N-{(1R,2S)-1-[(cyclopropylsulfonyl)carba-moyl]-2-vinylcyclopropyl}-10,10-dimethyl-7-azadispiro[3.0.4.1]decane-8-carboxamide] is 0.7 nM; for `C=C[C@@H]1C[C@]1(NC(=O)[C@@H]1C[C@@]2(CN1C(=O)[C@@H](NC(=O)[C@@H](NC(=O)[C@H]1CCN1C(C)C)C(C)(C)C)C(C)(C)C)C(C)(C)C21CCC1)C(=O)NS(=O)(=O)C1CC1` [Compound 135, (5R,8S)-N-{(1R,2S)-1-[(cyclopropylsulfonyl)carba-moyl]-2-vinylcyclopropyl}-7-[(2S)-2-{[(2S)-2-({[(2R)-1-isopropylazetidin-2-yl]carbonyl}amino)-3,3-dimethylbutanoyl]amino}-3,3-dimethylbutanoyl]-10,10-dimethyl-7-azadispiro[3.0.4.1]decane-8-carboxamide] it is 15 nM; for `C=C[C@@H]1C[C@]1(NC(=O)[C@@H]1C[C@@]2(CN1C(=O)[C@@H](NC(=O)[C@@H](NC(=O)c1c(C)n[nH]c1C)C(C)(C)C)C(C)(C)C)C(C)(C)C21CCC1)C(=O)NS(=O)(=O)C1CC1` [Compound 136, (5R,8S)-N-{(1R,2S)-1-[(cyclopropylsulfonyl)carba-moyl]-2-vinylcyclopropyl}-7-[(2S)-2-{[(2S)-2-{[(3,5-dimethyl-1H-pyrazol-4-yl)carbonyl]amino}-3,3-dimethylbutanoyl]amino}-3,3-dimethylbutanoyl]-10,10-dimethyl-7-azadispiro[3.0.4.1]decane-8-carboxamide] it is 20 nM.
As for `C=C[C@@H]1C[C@]1(NC(=O)[C@@H]1C[C@@]2(CN1C(=O)[C@@H](NC(=O)[C@@H](NC(=O)[C@@H]1CCCCN1C(C)C)C1CCCCC1)C(C)(C)C)C(C)(C)C21CCC1)C(=O)NS(=O)(=O)C1CC1` [Compound 92, (5R,8S)-7-[(2S)-2-{[(2S)-2-cyclohexyl-2-({[(2S)-1-isopropylpiperidin-2-yl]carbonyl}amino)acetyl]amino}-3,3-dimethylbutanoyl]-N-{(1R,2S)-1-[(cyclopropylsulfonyl)carba-moyl]-2-vinylcyclopropyl}-10,10-dimethyl-7-azadispiro[3.0.4.1]decane-8-carboxamide], the IC50 came out at 0.4 nM.
Still for that read-out and setting: in the case of `C=C[C@@H]1C[C@]1(NC(=O)[C@@H]1C[C@@]2(CN1C(=O)[C@@H](NC(=O)[C@@H](NC(=O)[C@@H]1CCCCN1CC)C1CCCCC1)C(C)(C)C)C(C)(C)C21CCC1)C(=O)NS(=O)(=O)C1(C)CC1` [Compound 73, (5R,8S)-7-[(2S)-2-{[(2S)-2-cyclohexyl-2-({[(2S)-1-ethylpiperidin-2-yl]carbonyl}amino)acetyl]amino}-3,3-dimethylbutanoyl]-10,10-dimethyl-N-[(1R,2S)-1-{[(1-methylcyclopropyl)sulfonyl]carbamoyl}-2-vinylcyclopropyl]-7-azadispiro[3.0.4.1]decane-8-carboxamide] it was 3 nM; in that of `C=C[C@@H]1C[C@]1(NC(=O)[C@@H]1C[C@@]2(CN1C(=O)[C@@H](NC(=O)[C@@H](NC(=O)c1ccccc1)C1CCCCC1)C(C)(C)C)C(C)(C)C21CCC1)C(=O)NS(=O)(=O)C1CC1` [Compound 98, (5R,8S)-7-[(2S)-2-{[(2S)-2-(benzoylamino)-2-cyclohexylacetyl]amino}-3,3-dimethylbutanoyl]-N-{(1R,2S)-1-[(cyclopropylsulfonyl)carba-moyl]-2-vinylcyclopropyl}-10,10-dimethyl-7-azadispiro[3.0.4.1]decane-8-carboxamide], 1.5 nM.
On the same count and under the same terms, the figure for `C=C[C@@H]1C[C@]1(NC(=O)[C@@H]1C[C@@]2(CN1C(=O)[C@@H](NC(=O)[C@@H](NC(=O)[C@@H]1COCCN1C(C)C)C(C)(C)C)C(C)(C)C)C(C)(C)C21CCC1)C(=O)NS(=O)(=O)C1CC1` [Compound 143, (5R,8S)-N-{(1R,2S)-1-[(cyclopropylsulfonyl)carba-moyl]-2-vinylcyclopropyl}-7-[(2S)-2-{[(2S)-2-({[(3S)-4-isopropylmorpholin-3-yl]carbonyl}amino)-3,3-dimethylbutanoyl]amino}-3,3-dimethylbutanoyl]-10,10-dimethyl-7-azadispiro[3.0.4.1]decane-8-carboxamide] is 4 nM; for `C=C[C@H]1C[C@@]1(NC(=O)[C@@H]1C[C@@]2(CN1C(=O)[C@@H](NC(=O)[C@@H](NC(=O)c1nccn1C)C1CCCCC1)C(C)(C)C)C(C)(C)C21CCC1)C(=O)NS(=O)(=O)C1CC1` [Compound 103, (5R,8S)-7-{(2S)-2-[(cyclohexyl{[(1-methyl-1H-imidazol-2-yl)carbonyl]amino}acetyl)amino]-3,3-dimethylbutanoyl}-N-{(1R,2S)-1-[(cyclopropylsulfonyl)carba-moyl]-2-vinylcyclopropyl}-10,10-dimethyl-7-azadispiro[3.0.4.1]decane-8-carboxamide] it is 1.5 nM; for `C=C[C@@H]1C[C@]1(NC(=O)[C@@H]1C[C@@]2(CN1C(=O)[C@@H](NC(=O)[C@@H](NC(=O)N1CCN(C)CC1)C(C)(C)C)C(C)(C)C)C(C)(C)C21CCC1)C(=O)NS(=O)(=O)C1CC1` [Compound 55, (5R,8S)-N-{(1R,2S)-1-[(cyclopropylsulfonyl)carba-moyl]-2-vinylcyclopropyl}-7-[(2S)-2-{[(2S)-3,3-dimethyl-2-{[(4-methylpiperazin-1-yl)carbonyl]amino}butanoyl]amino}-3,3-dimethylbutanoyl]-10,10-dimethyl-7-azadispiro[3.0.4.1]decane-8-carboxamide] it is 25 nM.

Still in this experiment, the particulars now being: read-out: Protease IC50.
On to `C=C[C@@H]1C[C@]1(NC(=O)[C@@H]1C[C@@]2(CN1C(=O)[C@@H](CC(=O)OC(C)(C)C)C(C)(C)C)C(C)(C)C21CCC1)C(=O)NS(=O)(=O)C1CC1` [Compound 43, tert-butyl (3S)-3-{[(5R,8S)-8-({(1R,2S)-1-[(cyclopropylsulfonyl)carba-moyl]-2-vinylcyclopropyl}carbamoyl)-10,10-dimethyl-7-azadispiro[3.0.4.1]dec-7-yl]carbonyl}-4,4-dimethylpentanoate], for which the IC50 is 450 nM.
Consider `C=C[C@@H]1C[C@]1(NC(=O)[C@@H]1C[C@@]2(CN1C(=O)[C@@H](NC(=O)N[C@H](CN(C)S(=O)(=O)N(C)C)C(C)(C)C)C(C)(C)C)C(C)(C)C21CCC1)C(=O)NS(=O)(=O)C1CC1` [Compound 20, (5R,8S)-N-{(1R,2S)-1-[(cyclopropylsulfonyl)carba-moyl]-2-vinylcyclopropyl}-7-[(2S)-2-({[(1S)-1-({[(dimethylamino)sulfonyl] (methyl)amino}methyl)-2,2-dimethylpropyl]carbamoyl}amino)-3,3-dimethylbutanoyl]-10,10-dimethyl-7-azadispiro[3.0.4.1]decane-8-carboxamide], for which the IC50 amounted to 2 nM.
Take `C=C[C@@H]1C[C@]1(NC(=O)[C@@H]1C[C@@]2(CN1C(=O)[C@@H](NC(=O)[C@@H](NS(=O)(=O)c1ccccc1)C(C)(C)C)C(C)(C)C)C(C)(C)C21CCC1)C(=O)NS(=O)(=O)C1CC1` [Compound 46, (5R,8S)-N-{(1R,2S)-1-[(cyclopropylsulfonyl)carba-moyl]-2-vinylcyclopropyl}-7-[(2S)-2-({(2S)-3,3-dimethyl-2-[(phenylsulfonyl)amino]butanoyl}amino)-3,3-dimethylbutanoyl]-10,10-dimethyl-7-azadispiro[3.0.4.1]decane-8-carboxamide]: the concentration for half-maximal inhibition (IC50) turned out to be 150 nM.
Still for that read-out and setting: the figure for `C=C[C@@H]1C[C@]1(NC(=O)[C@@H]1C[C@@]2(CN1C(=O)[C@@H](NC(=O)[C@@H](CC(=O)OC(C)(C)C)C(C)(C)C)C(C)(C)C)C(C)(C)C21CCC1)C(=O)NS(=O)(=O)C1CC1` [Compound 45, tert-butyl (3S)-3-{[(1S)-1-{[(5R,8S)-8-({(1R,2S)-1-[(cyclopropylsulfonyl)carba-moyl]-2-vinylcyclopropyl}carbamoyl)-10,10-dimethyl-7-azadispiro[3.0.4.1]dec-7-yl]carbonyl}-2,2-dimethylpropyl]carbamoyl}-4,4-dimethylpentanoate] is 65 nM.
